Results from the supplement of paper PMC10307832.

Tests used:
Experiment in all cases: relative viability (nuclei count vs DMSO), 5 days (fraction); higher = more cells survive
EPLC-272H = system: EPLC-272H
How it was run: (§1)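 The day after seeding in 1536-well plates, lung cancer cell lines were treated by pin tool with a single drug, or with a fixed anchor-drug dose together with five library-drug doses (not always all listed) in √10 steps. After 5 days, a combined fix-and-stain solution (final 0.05% Triton X-100, 1% formaldehyde, 1 ug/ml Hoechst) was added. Nuclei counted on 4× images gave relative viability as treated counts over vehicle counts, reported as the median of duplicate plates.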

SW 900 = system: SW 900
How it was run: as §1

HOP-62 = system: HOP-62
How it was run: as §1

NCI-H2085 = system: NCI-H2085
How it was run: as §1

COR-L 105 = system: COR-L 105
How it was run: as §1

NCI-H2009 = system: NCI-H2009
How it was run: as §1

NCI-H2170 = system: NCI-H2170
How it was run: as §1

NCI-H1666 = system: NCI-H1666
How it was run: as §1

HCC-78 = system: HCC-78
How it was run: as §1

NCI-H1915 = system: NCI-H1915
How it was run: as §1

SK-LU-1 = system: SK-LU-1
How it was run: as §1

A-427 = system: A-427
How it was run: as §1

NCI-H1793 = system: NCI-H1793
How it was run: as §1

NCI-H1792 = system: NCI-H1792
How it was run: as §1

UMC-11 = system: UMC-11
How it was run: as §1

NCI-H358 = system: NCI-H358
How it was run: as §1

NCI-H1944 = system: NCI-H1944
How it was run: as §1

LC-2-ad = system: LC-2-ad
How it was run: as §1

LU99A = system: LU99A
How it was run: as §1

LXF-289 = system: LXF-289
How it was run: as §1

NCI-H460 = system: NCI-H460
How it was run: as §1

HCC-366 = system: HCC-366
How it was run: as §1

Q: How did the relative viability (EPLC-272H; first compound 0.01 µM) turn out when `CCN(CC)CCCCNc1ncc2cc(-c3cc(OC)cc(OC)c3)c(NC(=O)NC(C)(C)C)nc2n1` + CC(=O)c1c(C)c2cnc(Nc3ccc(N4CCNCC4)cn3)nc2n(C2CCCC2)c1=O [Palbociclib] (partner 0.5 µM) was run?
A: 0.286

Q: And the relative viability (EPLC-272H; first compound 0.1 µM)?
A: 0.33

Q: What about the relative viability (EPLC-272H; first compound 0.3162 µM) of the same compound?
A: 0.284

Q: What about the relative viability (EPLC-272H; first compound 1 µM) of the same compound?
A: 0.339

Q: And the relative viability (SW 900; first compound 0.01 µM)?
A: 0.653

Q: And the relative viability (SW 900; first compound 0.03162 µM)?
A: 0.535

Q: And the relative viability (SW 900; first compound 0.1 µM)?
A: 0.602

Q: What about the relative viability (SW 900; first compound 0.3162 µM) of the same compound?
A: 0.517

Q: What about the relative viability (SW 900; first compound 1 µM) of the same compound?
A: 0.483

Q: And the relative viability (HOP-62; first compound 0.01 µM)?
A: 0.463

Q: And the relative viability (HOP-62; first compound 0.03162 µM)?
A: 0.455

Q: And the relative viability (HOP-62; first compound 0.1 µM)?
A: 0.481

Q: What about the relative viability (HOP-62; first compound 0.3162 µM) of the same compound?
A: 0.425

Q: And the relative viability (HOP-62; first compound 1 µM)?
A: 0.45

Q: What about the relative viability (NCI-H2085; first compound 0.01 µM) of the same compound?
A: 0.466

Q: And the relative viability (NCI-H2085; first compound 0.03162 µM)?
A: 0.45

Q: And the relative viability (NCI-H2085; first compound 0.1 µM)?
A: 0.443

Q: What about the relative viability (NCI-H2085; first compound 0.3162 µM) of the same compound?
A: 0.468

Q: What about the relative viability (NCI-H2085; first compound 1 µM) of the same compound?
A: 0.457

Q: What about the relative viability (COR-L 105; first compound 0.01 µM) of the same compound?
A: 0.398

Q: What about the relative viability (COR-L 105; first compound 0.03162 µM) of the same compound?
A: 0.393

Q: And the relative viability (COR-L 105; first compound 0.1 µM)?
A: 0.427

Q: What about the relative viability (COR-L 105; first compound 0.3162 µM) of the same compound?
A: 0.423

Q: And the relative viability (COR-L 105; first compound 1 µM)?
A: 0.405

Q: And the relative viability (NCI-H2009; first compound 0.01 µM)?
A: 0.211

Q: And the relative viability (NCI-H2009; first compound 0.03162 µM)?
A: 0.22

Q: What about the relative viability (NCI-H2009; first compound 0.1 µM) of the same compound?
A: 0.234

Q: What about the relative viability (NCI-H2009; first compound 0.3162 µM) of the same compound?
A: 0.196

Q: What about the relative viability (NCI-H2009; first compound 1 µM) of the same compound?
A: 0.161

Q: And the relative viability (NCI-H2170; first compound 0.01 µM)?
A: 0.38

Q: What about the relative viability (NCI-H2170; first compound 0.03162 µM) of the same compound?
A: 0.37

Q: And the relative viability (NCI-H2170; first compound 0.1 µM)?
A: 0.429

Q: What about the relative viability (NCI-H2170; first compound 0.3162 µM) of the same compound?
A: 0.409

Q: And the relative viability (NCI-H2170; first compound 1 µM)?
A: 0.385

Q: And the relative viability (NCI-H1666; first compound 0.01 µM)?
A: 0.666

Q: And the relative viability (NCI-H1666; first compound 0.03162 µM)?
A: 0.626

Q: And the relative viability (NCI-H1666; first compound 0.1 µM)?
A: 0.613

Q: And the relative viability (NCI-H1666; first compound 0.3162 µM)?
A: 0.649

Q: And the relative viability (NCI-H1666; first compound 1 µM)?
A: 0.613

Q: And the relative viability (HCC-78; first compound 0.01 µM)?
A: 0.465

Q: And the relative viability (HCC-78; first compound 0.03162 µM)?
A: 0.448

Q: What about the relative viability (HCC-78; first compound 0.1 µM) of the same compound?
A: 0.525

Q: What about the relative viability (HCC-78; first compound 0.3162 µM) of the same compound?
A: 0.45

Q: What about the relative viability (HCC-78; first compound 1 µM) of the same compound?
A: 0.465

Q: And the relative viability (NCI-H1915; first compound 0.01 µM)?
A: 0.655

Q: What about the relative viability (NCI-H1915; first compound 0.03162 µM) of the same compound?
A: 0.528

Q: What about the relative viability (NCI-H1915; first compound 0.1 µM) of the same compound?
A: 0.557

Q: And the relative viability (NCI-H1915; first compound 0.3162 µM)?
A: 0.546

Q: What about the relative viability (NCI-H1915; first compound 1 µM) of the same compound?
A: 0.496

Q: And the relative viability (SK-LU-1; first compound 0.01 µM)?
A: 0.457

Q: And the relative viability (SK-LU-1; first compound 0.03162 µM)?
A: 0.387

Q: And the relative viability (SK-LU-1; first compound 0.1 µM)?
A: 0.359

Q: And the relative viability (SK-LU-1; first compound 0.3162 µM)?
A: 0.434

Q: And the relative viability (SK-LU-1; first compound 1 µM)?
A: 0.309

Q: What about the relative viability (A-427; first compound 0.01 µM) of the same compound?
A: 0.58

Q: And the relative viability (A-427; first compound 0.03162 µM)?
A: 0.475

Q: And the relative viability (A-427; first compound 0.1 µM)?
A: 0.59

Q: And the relative viability (A-427; first compound 0.3162 µM)?
A: 0.501

Q: What about the relative viability (A-427; first compound 1 µM) of the same compound?
A: 0.398

Q: And the relative viability (NCI-H1793; first compound 0.01 µM)?
A: 0.288

Q: And the relative viability (NCI-H1793; first compound 0.03162 µM)?
A: 0.295

Q: What about the relative viability (NCI-H1793; first compound 0.1 µM) of the same compound?
A: 0.403

Q: And the relative viability (NCI-H1793; first compound 0.3162 µM)?
A: 0.277

Q: And the relative viability (NCI-H1793; first compound 1 µM)?
A: 0.269

Q: And the relative viability (NCI-H1792; first compound 0.01 µM)?
A: 0.66

Q: What about the relative viability (NCI-H1792; first compound 0.03162 µM) of the same compound?
A: 0.623

Q: What about the relative viability (NCI-H1792; first compound 0.1 µM) of the same compound?
A: 0.568

Q: And the relative viability (NCI-H1792; first compound 0.3162 µM)?
A: 0.562

Q: What about the relative viability (NCI-H1792; first compound 1 µM) of the same compound?
A: 0.639

Q: What about the relative viability (UMC-11; first compound 0.01 µM) of the same compound?
A: 0.338

Q: What about the relative viability (UMC-11; first compound 0.03162 µM) of the same compound?
A: 0.305

Q: What about the relative viability (UMC-11; first compound 0.1 µM) of the same compound?
A: 0.351

Q: And the relative viability (UMC-11; first compound 0.3162 µM)?
A: 0.313

Q: And the relative viability (UMC-11; first compound 1 µM)?
A: 0.343

Q: What about the relative viability (NCI-H358; first compound 0.01 µM) of the same compound?
A: 0.146

Q: And the relative viability (NCI-H358; first compound 0.03162 µM)?
A: 0.123

Q: And the relative viability (NCI-H358; first compound 0.1 µM)?
A: 0.159

Q: And the relative viability (NCI-H358; first compound 0.3162 µM)?
A: 0.139

Q: And the relative viability (NCI-H358; first compound 1 µM)?
A: 0.136

Q: And the relative viability (NCI-H1944; first compound 0.01 µM)?
A: 0.35

Q: And the relative viability (NCI-H1944; first compound 0.03162 µM)?
A: 0.345

Q: And the relative viability (NCI-H1944; first compound 0.1 µM)?
A: 0.312

Q: And the relative viability (NCI-H1944; first compound 0.3162 µM)?
A: 0.348

Q: And the relative viability (NCI-H1944; first compound 1 µM)?
A: 0.278

Q: And the relative viability (LC-2-ad; first compound 0.01 µM)?
A: 0.503

Q: And the relative viability (LC-2-ad; first compound 0.03162 µM)?
A: 0.486

Q: And the relative viability (LC-2-ad; first compound 0.1 µM)?
A: 0.491

Q: And the relative viability (LC-2-ad; first compound 0.3162 µM)?
A: 0.589

Q: And the relative viability (LC-2-ad; first compound 1 µM)?
A: 0.473

Q: What about the relative viability (LU99A; first compound 0.01 µM) of the same compound?
A: 0.364

Q: What about the relative viability (LU99A; first compound 0.03162 µM) of the same compound?
A: 0.393

Q: What about the relative viability (LU99A; first compound 0.1 µM) of the same compound?
A: 0.457

Q: And the relative viability (LU99A; first compound 0.3162 µM)?
A: 0.446

Q: And the relative viability (LU99A; first compound 1 µM)?
A: 0.338

Q: What about the relative viability (LXF-289; first compound 0.01 µM) of the same compound?
A: 0.628

Q: And the relative viability (LXF-289; first compound 0.03162 µM)?
A: 0.581

Q: And the relative viability (LXF-289; first compound 0.1 µM)?
A: 0.673

Q: What about the relative viability (LXF-289; first compound 0.3162 µM) of the same compound?
A: 0.61

Q: And the relative viability (LXF-289; first compound 1 µM)?
A: 0.559

Q: What about the relative viability (NCI-H460; first compound 0.01 µM) of the same compound?
A: 0.147

Q: What about the relative viability (NCI-H460; first compound 0.03162 µM) of the same compound?
A: 0.222

Q: What about the relative viability (NCI-H460; first compound 0.1 µM) of the same compound?
A: 0.112

Q: What about the relative viability (NCI-H460; first compound 0.3162 µM) of the same compound?
A: 0.165

Q: What about the relative viability (NCI-H460; first compound 1 µM) of the same compound?
A: 0.147

Q: What about the relative viability (HCC-366; first compound 0.01 µM) of the same compound?
A: 0.364

Q: And the relative viability (HCC-366; first compound 0.03162 µM)?
A: 0.406

Q: What about the relative viability (HCC-366; first compound 0.1 µM) of the same compound?
A: 0.504

Q: And the relative viability (HCC-366; first compound 0.3162 µM)?
A: 0.438

Q: And the relative viability (HCC-366; first compound 1 µM)?
A: 0.441
